The values that follow come from patent publication US12459916B2, “Substituted indazoles useful for treatment and prevention of allergic and/or inflammatory diseases in animals” (Bayer Pharma Aktiengesellschaft, priority 2016, dated 2025).

Usually IC50 stands for the concentration needed to halve the response being measured.

Experiment [1] relates to secretion of TNF-α in THP-1 cells. In words: TNF-α secretion in THP-1 cells. Particulars: Homo sapiens, LPS 0.05 μg/ml, 17 h, read-out: IC50 with respect to the secretion of TNF-α in THP-1 cells. Format: cell-based. Here is the method:
This test is suited to test substances for their ability to inhibit secretion of TNF-α (tumour necrosis factor alpha) in THP-1 cells (human monocytic acute leukaemia cell line). TNF-α is a cytokine involved in inflammatory processes. In this test, TNF-α secretion is triggered by incubation with bacterial lipopolysaccharide (LPS).
The cells were incubated at room temperature for 15 min. 2-2.5 μl of 0.1 μg/ml LPS (Sigma, Escherichia coli 055:B5, Cat. No. L5418) dissolved in cell culture medium (final concentration 0.05 μg/ml) were then dispensed into each well. As neutral control, cells were treated with 0.05 μg/ml LPS and 1% DMSO and, as inhibitor control, with 1% DMSO only.
The amount of TNF-α was determined using the TNF-alpha HTRF Detection Kit (Cisbio, Cat. No. 62TNFPEB/C). To this end, 2 μl of the detection solution in each case, consisting of anti-TNF-α-XL665 conjugate and anti-TNF-α-cryptate conjugate dissolved in the reconstitution buffer in accordance with the manufacturer's instructions, were added for the HTRF (Homogeneous Time-Resolved Fluorescence) test. After the addition, the mixture was incubated either at room temperature for 3 h or at 4° C. overnight.
The activity of the substances is expressed as the ratio between neutral and inhibitor control in percent. The IC50 values were calculated using a 4-parameter fit.

Another experiment addresses canine IRAK4 (Canis lupus familiaris, UniProt A0A8I3S726). In words: Canine IRAK4 kinase assay (TR-FRET). Format: biochemical. The procedure: The IRAK4-inhibitory activity of the present compounds on canine IRAK4 was measured in the Irak4 TR-FRET assay (TR-FRET=Time Resolved Fluorescence Resonance Energy Transfer) described hereinafter.
Recombinant fusion protein from N-terminal HIS (Poly-histidine) and canine Irak4, expressed in baculovirus-infected insect cells (Hi5, BTI-TN-5B1-4, cell line purchased from Invitrogen, catalogue No. B855-02) and purified via affinity chromatography, was used as enzyme. The substrate used for the kinase reaction was the biotinylated peptide biotin-Ahx-[…]
50 nl of the respective solution were pipetted into a black low-volume 384-well microtitre plate (Greiner Bio-One, Frickenhausen, Germany), 2 μl of a solution of Irak4 in assay buffer [50 mM HEPES pH 7.5, 5 mM MgCl2, 1.0 mM dithiothreitol, 30 μM activated sodium orthovanadate, 0.1% (w/v) of bovine gamma-globulin (BGG) 0.04% (v/v) nonidet-P40 (Sigma)] were added and the mixture was incubated for 15 min to allow prebinding of the substances to the enzyme prior to the kinase reaction. […] The concentration of the Irak4 was adjusted to the respective activity of the enzyme and set such that the assay was carried out in the linear range. Typical concentrations were in the order of about 0.1 nM.
The resulting mixture was incubated at 22° C. for 1 h to allow formation of a complex of the biotinylated phosphorylated substrate and the detection reagents. The amount of the phosphorylated substrate was then evaluated by measuring the resonance energy transfer from europium chelate-labelled anti-mouse-IgG antibody to streptavidin-XL665. […] The IC50 values were calculated by a 4-parameter fit.
For orientation: In TR-FRET formats the signal depends on donor and acceptor labels being close together.

Setting [2] is: IC50 in the IRAK4 canine kinase assay, values from two experiments, 1 mM ATP.
The mark [3] stands for this setting: recombinant canine IRAK4 enzyme, read-out: IC50 for the inhibition of canine IRAK4.

Read-outs that look alike come from different tables or passages of the source.

Chain of canine IRAK4 (A0A8I3S726 1-460): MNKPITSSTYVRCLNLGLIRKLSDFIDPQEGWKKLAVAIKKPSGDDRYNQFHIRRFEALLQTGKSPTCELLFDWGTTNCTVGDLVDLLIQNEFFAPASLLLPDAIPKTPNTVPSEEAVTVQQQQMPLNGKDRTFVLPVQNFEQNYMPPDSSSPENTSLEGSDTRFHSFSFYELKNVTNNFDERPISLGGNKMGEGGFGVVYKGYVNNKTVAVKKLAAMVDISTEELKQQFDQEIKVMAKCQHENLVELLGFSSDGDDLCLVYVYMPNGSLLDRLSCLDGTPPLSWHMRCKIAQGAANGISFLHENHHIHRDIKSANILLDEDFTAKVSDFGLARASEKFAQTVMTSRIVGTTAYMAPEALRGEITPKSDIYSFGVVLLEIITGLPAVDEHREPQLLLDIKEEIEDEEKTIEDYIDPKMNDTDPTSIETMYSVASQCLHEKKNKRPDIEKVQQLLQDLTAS

As to `CC(C)(O)CCn1cc2cc(NC(=O)c3cccc(C(F)F)n3)c(C(C)(C)O)cc2n1` [Example 13, 6-(Difluoromethyl)-N-[2-(3-hydroxy-3-methylbutyl)-6-(2-hydroxypropan-2-yl)-2H-indazol-5-yl]pyridine-2-carboxamide], the IC50 in experiment [1] amounted to 100 nM; against canine IRAK4 (setting [2]), 2.68 nM; at canine IRAK4 (setting [3]), 2.2 nM.

For `Cc1nc(C(=O)Nc2cc3cn(CCC(C)(C)O)nc3cc2C(C)(C)O)ccc1F` [Example 19, 5-Fluoro-N-[2-(3-hydroxy-3-methylbutyl)-6-(2-hydroxypropan-2-yl)-2H-indazol-5-yl]-6-methylpyridine-2-carboxamide], the results for the IC50 (in experiment [1]; on canine IRAK4 (setting [2]); on canine IRAK4 (setting [3])) were 100 nM, 6.75 nM and 7.6 nM, respectively.
